Test results published in patent US10266497B2 (ABIDE THERAPEUTICS, INC., priority 2017, dated 2019).
Where two headings read alike, the source gives them in different places.

How the values were obtained:
MAGL [1] = biological target: T1, MAGL (Mus musculus, UniProt O35678); test: In vitro competitive activity-based protein profiling, MAGL, mouse; details: read-out: MAGL % inh. 1 μM (mouse)
T1 sequence (O35678 1-303): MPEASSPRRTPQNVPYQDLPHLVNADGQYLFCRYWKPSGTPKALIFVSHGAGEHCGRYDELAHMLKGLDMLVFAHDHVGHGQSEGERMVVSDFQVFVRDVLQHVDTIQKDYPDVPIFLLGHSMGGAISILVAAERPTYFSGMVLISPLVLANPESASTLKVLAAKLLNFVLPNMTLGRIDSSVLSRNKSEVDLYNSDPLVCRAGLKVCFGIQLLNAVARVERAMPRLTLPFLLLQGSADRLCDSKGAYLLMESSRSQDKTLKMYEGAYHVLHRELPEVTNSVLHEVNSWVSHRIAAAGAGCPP

MAGL [2] = biological target: T1, MAGL; test: Mouse brain proteomes from inhibitor treated mice (oral gavage, sacrificed 4 h after administration); type: in vivo; set-up: mouse brain membrane fraction for mouse assays; from tissue; host or cells: mouse brain (membrane fraction in vitro; brain proteomes of treated C57Bl/6J mice in vivo); details: 5 mg/kg oral gavage, brain proteome 4 h after administration, read-out: MAGL % inh. 5 mg/kg (mouse)
MAGL [3] = biological target: T2, MAGL (Homo sapiens, UniProt Q99685); test: In vitro competitive activity-based protein profiling, MAGL, human; details: read-out: MAGL % inh. 1 μM (human)
T2 sequence (Q99685 1-303): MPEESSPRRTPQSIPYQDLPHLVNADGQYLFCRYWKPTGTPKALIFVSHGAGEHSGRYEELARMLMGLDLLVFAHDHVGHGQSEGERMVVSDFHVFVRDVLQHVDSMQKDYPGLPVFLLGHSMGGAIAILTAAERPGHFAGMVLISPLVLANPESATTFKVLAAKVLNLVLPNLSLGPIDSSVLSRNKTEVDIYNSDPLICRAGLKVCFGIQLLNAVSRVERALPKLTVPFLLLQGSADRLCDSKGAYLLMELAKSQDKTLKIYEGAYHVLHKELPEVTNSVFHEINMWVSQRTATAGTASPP

Compound | inhibition at 1 µM (MAGL [1]) [%] | inhibition at 5 mg/kg (MAGL [2]) [%] | inhibition at 1 µM (MAGL [3]) [%] | inhibition at 5 mg/kg (MAGL [2]; C57Bl/6J mice) [%]
Cc1cn(C(=O)N2C[C@H]3C[C@H](OCc4cc(F)cc(Cl)c4)C[C@H]3C2)nc1C(=O)O [Example 252, 1-(trans-5-((3-chloro-5-fluorobenzyl)oxy)octahydrocyclopenta [c]pyrrole-2-carbonyl)-4-methyl-1H-pyrazole-3-carboxylic acid] | > 75 | 0 to 25 | > 75 | 
Cc1ccc(Oc2cccc(CN3CCN(C(=O)n4ccc(C(=O)O)n4)CC3)c2)cc1 [Example 251, 1-(4-(3-(p-tolyloxy)benzyl)pi-perazine-1-carbonyl)-1H-pyrazole-3-carboxylic acid] | > 75 | 0 to 25 | > 75 | 
C[C@@H]1C[C@H](N(C)Cc2cccc(C(F)(F)F)c2)CCN1C(=O)n1ccc(C(N)=O)n1 [Example 257, 1-((2R,4R)-2-methyl-4-(methyl(3-(trifluoromethyl)benzyl)amino)piper-idine-1-carbonyl)-1H-pyrazole-3-carboxamide] | > 75 | > 75 | > 75 | 
CC(C)(O)COc1cccc(O[C@H]2C[C@@H]3CN(C(=O)n4ccc(C(=O)O)n4)C[C@@H]3C2)c1Cl [Example 451, 1-(trans-5-(2-chloro-3-(2-hydroxy-2-methylpropoxy)phenoxy)octahydro-cyclopenta[c]pyrrole-2-carbonyl)-1H-pyrazole-3-carboxylic acid] | > 75 |  | > 75 | 0 to 25
C[C@H]1CN(Cc2cc(F)cc(Oc3ccc(Cl)cc3)c2)CCN1C(=O)n1ccc(C(=O)O)n1 [Example 347, (S)-1-(4-(3-(4-chlorophenoxy)-5-fluorobenzyl)-2-methylpiperazine-1-carbonyl)-1H-pyrazole-3-carboxylic acid] | > 75 | 0 to 25 | > 75 | 
O=C(O)c1ccn(C(=O)N2C[C@H]3C[C@H](Oc4cccc(-c5cccnc5)c4)C[C@H]3C2)n1 [Example 241, 1-(trans-5-(3-(pyridin-3-yl)phenoxy)octa-hydrocyclopenta[c]pyrrole-2-carbonyl)-1H-pyrazole-3-carboxylic acid] | > 75 | 0 to 25 | > 75 | 
C[C@@H]1CN(Cc2ccc(C(F)(F)F)cc2N2C3CCC2COC3)CCN1C(=O)n1ccc(C(=O)O)n1 [Example 393, 1-((2R)-4-(2-(3-oxa-8-azabicyclo[3.2.1]octan-8-yl)-4-(trifluoromethyl)benzyl)-2-methylpiperazine-1-carbonyl)-1H-pyrazole-3-carboxylic acid] | > 75 | 0 to 25 | > 75 | 
O=C(O)c1nn(C(=O)N2CCC3(CCN(Cc4cccc(Cl)c4C(F)(F)F)C3)CC2)cc1Cl [Example 26, 4-Chloro-1-(2-(3-chloro-2-(trifluoromethyl)benzyl)-2,8-diazaspiro[4.5]decane-8-carbonyl)-1H-pyrazole-3-carboxylic Acid] | > 75 | 0 to 25 | > 75 | 
C[C@H]1CN(Cc2ccc(C(F)(F)F)cc2N2C3CCC2COC3)CCN1C(=O)n1ccc(C(=O)O)n1 [Example 395, 1-((2S)-4-(2-(3-oxa-8-azabicyclo[3.2.1]octan-8-yl)-4-(trifluoromethyl)benzyl)-2-methylpiperazine-1-carbonyl)-1H-pyrazole-3-carboxylic acid] | > 75 |  | > 75 | 0 to 25

Further lines, results first:

inhibition at 1 µM (MAGL [1]) [%] | inhibition at 5 mg/kg (MAGL [2]) [%] | inhibition at 1 µM (MAGL [3]) [%] | inhibition at 5 mg/kg (MAGL [2]; C57Bl/6J mice) [%] | Compound
> 75 |  | > 75 | 0 to 25 | O=C(O)c1ccn(C(=O)N2CCC3(CCCN3C(=O)c3ccc(C(F)(F)F)cc3N3CCCC3)CC2)n1 [Example 403, 1-(1-(2-(pyrrolidin-1-yl)-4-(trifluoromethyl)benzoyl)-1,8-diazaspiro[4.5]decane-8-carbonyl)-1H-pyrazole-3-carboxylic acid]
> 75 |  | > 75 | 0 to 25 | CN(Cc1ccc(C(F)(F)F)cc1N1CCCCC1)C1(C)CCN(C(=O)n2ccc(C(=O)O)n2)CC1 [Example 397, 1-(4-methyl-4-(methyl(2-(piperidin-1-yl)-4-(trifluoromethyl)benzyl)amino)piper-idine-1-carbonyl)-1H-pyrazole-3-carboxylic acid]
> 75 | 0 to 25 | > 75 |  | O=C(O)c1ccn(C(=O)N2CCC3(CCN(Cc4cc(Cl)cc(Cl)c4Cl)C3)CC2)n1 [Example 337, 1-(2-(2,3,5-trichlorobenzyl)-2,8-diazaspiro[4.5]decane-8-carbonyl)-1H-pyrazole-3-carboxylic acid]
> 75 | 0 to 25 | > 75 |  | CN(Cc1cccc(C(F)(F)F)c1N1CCCC1)C1(C)CCN(C(=O)n2ccc(C(=O)O)n2)CC1 [Example 382, 1-(4-methyl-4-(methyl(2-(pyrrolidin-1-yl)-3-(trifluoromethyl)benzyl)amino)piper-idine-1-carbonyl)-1H-pyrazole-3-carboxylic acid]
> 75 | 0 to 25 | > 75 |  | C[C@H]1CC[C@H](C)N1c1cc(C(F)(F)F)ccc1CN1CCN(C(=O)n2ccc(C(=O)O)n2)CC1 [Example 360, 1-(4-(2-((2S,5S)-2,5-dimethylpyrrolidin-1-yl)-4-(trifluoromethyl)benzyl)piperazine-1-carbonyl)-1H-pyrazole-3-carboxylic acid]
> 75 | 0 to 25 | > 75 |  | CN(Cc1cc(C(F)(F)F)ccc1N1CCCC1)C1(C)CCN(C(=O)n2ccc(C(=O)O)n2)CC1 [Example 384, 1-(4-methyl-4-(methyl(2-(pyrrolidin-1-yl)-5-(trifluoromethyl)benzyl)amino)piper-idine-1-carbonyl)-1H-pyrazole-3-carboxylic acid]
> 75 | 0 to 25 | > 75 |  | C[C@H]1CN(Cc2ccc(C(F)(F)F)cc2N2CCCC2)CCN1C(=O)n1ccc(C(=O)O)n1 [Example 328, (S)-1-(2-methyl-4-(2-(pyrrolidin-1-yl)-4-(trifluoromethyl)benzyl)piperazine-1-carbonyl)-1H-pyrazole-3-carboxylic acid]
> 75 | 0 to 25 | > 75 |  | C[C@@H]1CC[C@@H](C)N1c1cc(C(F)(F)F)ccc1CN1CCN(C(=O)n2ccc(C(=O)O)n2)CC1 [Example 359, 1-(4-(2-((2R,5R)-2,5-dimethylpyrrolidin-1-yl)-4-(trifluoromethyl)benzyl)piperazine-1-carbonyl)-1H-pyrazole-3-carboxylic acid]
> 75 | 0 to 25 | > 75 |  | O=C(O)c1ccn(C(=O)N2CCC(Oc3ccc(C(F)(F)F)cc3N3CCCC3)CC2)n1 [Example 307, 1-(4-(2-(pyrrolidin-1-yl)-4-(trifluoromethyl)phenoxy)piperidine-1-carbonyl)-1H-pyrazole-3-carboxylic acid]
> 75 |  | > 75 | 0 to 25 | O=C(O)c1ccn(C(=O)N2CCC3(CCCN3Cc3ccc(C(F)(F)F)cc3N3CCC(F)CC3)CC2)n1 [Example 413, 1-(1-(2-(4-fluoropiperidin-1-yl)-4-(trifluoromethyl)benzyl)-1,8-diazaspiro[4.5]decane-8-carbonyl)-1H-pyrazole-3-carboxylic acid]
> 75 | 0 to 25 | > 75 |  | CN(Cc1ccc(C(F)(F)F)c(N2CCCC2)c1)C1(C)CCN(C(=O)n2ccc(C(=O)O)n2)CC1 [Example 385, 1-(4-methyl-4-(methyl(3-(pyrrolidin-1-yl)-4-(trifluoromethyl)benzyl)amino)piper-idine-1-carbonyl)-1H-pyrazole-3-carboxylic acid]
